Assays:
Format in all cases: in vivo
development of fibrosis = experiment: 10-day bed rest study: all 3 fibrosis markers taken together; conditions: prolonged period of physical inactivity, human subject
Text: The following inclusion criteria were verified at screening: male or female ≧60 to ≦79 years of age; body mass index (BMI) ≧20 but ≦35; ambulatory with a Short Performance Physical Battery (SPPB) score of ≧9 (fully functional with no mobility limitations); and compliance with prescribed activity level. Exclusion criteria ruled out subjects who had undergone recent major surgery, had active malignancy (excepting basal or squamous cell skin carcinoma or carcinoma in situ of the uterine cervix); history of Deep Vein Thrombosis (DVT) or other hypercoagulation disorders; refractory anemia; history of diabetes or fasting blood glucose value >126 mg/dL; presence of partial or full artificial limb; kidney disease or serum creatinine >1.4 mg/dL; evidence of cardiovascular disease assessed during resting or exercise EKG; untreated hypothyroidism; liver disease; chronic or acute GI disease; uncontrolled severe diarrhea, nausea or vomiting; were actively pursuing weight loss; were enrolled in other clinical trials; could not refrain from smoking over the bed rest study period; or could not discontinue anticoagulant therapy over bed rest period. […]
(§1) After a diet stabilization of 5 days (ambulatory period), subjects remained in bed continuously for 10 days. […] Subjects were constantly monitored by nursing staff and received a daily physical examination by the study physician. […]

[1] = test system: Matrix Metalloproteinase-3 (MMP-3); experiment: 10-day bed rest study in healthy elderly subjects: circulating MMP-3 (RBM Human DiscoveryMAP, serum)
Text: (§2) The following inclusion criteria were verified at screening: male or female ≧60 to ≦79 years of age; body mass index (BMI) ≧20 but ≦35; ambulatory with a Short Performance Physical Battery (SPPB) score of ≧9 (fully functional with no mobility limitations); and compliance with prescribed activity level. Exclusion criteria ruled out subjects who had undergone recent major surgery, had active malignancy (excepting basal or squamous cell skin carcinoma or carcinoma in situ of the uterine cervix); history of Deep Vein Thrombosis (DVT) or other hypercoagulation disorders; refractory anemia; history of diabetes or fasting blood glucose value >126 mg/dL; presence of partial or full artificial limb; kidney disease or serum creatinine >1.4 mg/dL; evidence of cardiovascular disease assessed during resting or exercise EKG; untreated hypothyroidism; liver disease; chronic or acute GI disease; uncontrolled severe diarrhea, nausea or vomiting; were actively pursuing weight loss; were enrolled in other clinical trials; could not refrain from smoking over the bed rest study period; or could not discontinue anticoagulant therapy over bed rest period. Potential subjects were also excluded if they were taking any medications known to affect protein metabolism (e.g., progestational agents, steroids, growth hormone, dronabinol, marijuana, HMB, free amino acid supplements, dietary supplements to aid weight loss).
(§3) The 24 healthy subjects initially involved in the study were randomized into two groups. Subjects in the treatment group received two β-hydroxy-β-methylbutyrate (HMB) sachets containing 1.5 grams of Ca-HMB (TSI, Salt Lake City, Utah), 4 grams of maltodextrin, and 200 milligrams of calcium with additional sweetener and flavoring agents. Subjects in the control group received two control sachets that were identical to the HMB sachets with the exclusion Ca-HMB. This study was a double-blinded study. Neither the investigators nor the subjects were informed of the identity of any of the study products during the clinical portion of the study. Subjects were instructed to consume a sachet twice daily by mixing a sachet into a non-caloric, non-caffeinated, non-carbonated, non-milk-based beverage of their choice. Treatment with HMB or Control was initiated 5 days prior to bed rest and was continued until the end of the rehabilitation period.
(§4) For diet stabilization over the pre-bed rest and bed rest periods, subjects were fed a metabolically controlled diet providing the RDA for protein intake (0.8 g protein/kg body weight per day). Total calorie needs were estimated using the Harris-Benedict equation for resting energy expenditure according to the following equation: For women=[655+(9.56×body weight in kg)+(1.85×height in cm)−(4.68×age in years)]×AF, and, For men=[66+(13.7×body weight in kg)+(5×height in cm)−([…]]×AF, where AF=activity factor of 1.6 for the ambulatory period and 1.35 for the bed rest period. Given the total calorie and protein intakes, the remainder of the diet was manipulated to keep the non-protein calories at about 60% from carbohydrates and 40% from fat. Water was provided ad libitum.
(§5) After a diet stabilization of 5 days (ambulatory period), subjects remained in bed continuously for 10 days. While confined to bed rest, subjects were allowed to use the bedside commode for urination or were taken in a wheelchair for toileting. Subjects were given the option of taking a sponge bath or showering in a wheelchair. Prophylactic measures were taken to detect and prevent deep vein thrombosis including a blood d-dimer test followed by an ultrasound examination if d-dimer test was positive, passive range of motion exercise during bed rest, the use of TED hose and SCD over the bed rest period. Subjects were offered medication to help mitigate reflux problems associated with being supine. Subjects were constantly monitored by nursing staff and received a daily physical examination by the study physician. […]

[2] = test system: Matrix Metalloproteinase-10 (MMP-10); experiment: 10-day bed rest study in healthy elderly subjects: circulating MMP-10 (RBM Human DiscoveryMAP, serum)
Text: as §2, §3, §4, §5

[3] = test system: Matrix Metalloproteinase-1 (MMP-1); experiment: 10-day bed rest study in healthy elderly subjects: circulating MMP-1 (RBM Human DiscoveryMAP, serum)
Text: as §2, §3, §4, §1

[4] = after 10 days of bed rest, 10 HMB treated subjects
[5] = serum, Day 1 of bed rest, after 5 days of Ca-HMB 1.5 g sachet twice daily, n = 10
[6] = serum, end of 10 days bed rest, Ca-HMB 1.5 g sachet twice daily, n = 10
[7] = post- minus pre-bed rest, 10 days, n = 10, ANCOVA vs control p < 0.0001

## CC(C)(O)CC(=O)O [HMB, β-hydroxy-β-methylbutyric acid]
Development of fibrosis
  effect against development of fibrosis, all 3 markers taken together: protective effect
[1]; [4]
  average decrease in blood levels of MMP-3: 2.71 ng/mL
  change (decrease) in blood levels of MMP-3: 25%
[1]; post- minus pre-bed rest, 10 days, n = 10, ANCOVA vs control p = 0.0007
  MMP-3 Change: -2.71 ± 0.78 ng/mL
[1]; prolonged bed rest, vs control
  effect on the decrease in blood levels of MMP-3 that occurs in untreated control subjects: reduces or attenuates the decrease
[1]; [5]
  MMP-3 Pre-bed rest Mean: 10.90 ng/mL
[1]; [6]
  MMP-3 Post-bed rest Mean: 8.19 ng/mL
[2]; [4]
  average decrease in blood levels of MMP-10: 0.09 ng/mL
  decrease in blood levels of MMP-10: 12%
[2]; [7]
  MMP-10 Change: -0.09 ± 0.04 ng/mL
[2]; prolonged bed rest, vs control
  effect on the decrease in blood levels of MMP-10 that occurs in untreated control subjects: reduces or attenuates the decrease
[2]; [5]
  MMP-10 Pre-bed rest Mean: 0.60 ng/mL
[2]; [6]
  MMP-10 Post-bed rest Mean: 0.51 ng/mL
[3]; [4]
  average increase in circulating levels of MMP-1: 2.17 ng/mL
[3]; [7]
  MMP-1 Change: 2.17 ± 1.06 ng/mL
[3]; prolonged bed rest, vs control
  effect on the increase in blood levels of MMP-1 that occurs in untreated control subjects: enhances the increase
[3]; [5]
  MMP-1 Pre-bed rest Mean: 11.29 ng/mL
[3]; [6]
  MMP-1 Post-bed rest Mean: 13.46 ng/mL

Source: patent US20150057350A1, “FIBROSIS BIOMARKERS AND METHODS OF USING SAME” (ABBOTT LABORATORIES, priority 2013, published 2015)
